The text below walks through data of patent US20110281812A1, “Compounds” (priority 2009, published 2011).

Where two headings read alike, the source gives them in different places.

In one assay the test system is Male BALB/c mice. Nature of the assay: Cigarette-smoke-induced lung neutrophilia. The assay is classed as in vivo. Conditions: oral gavage; for reduction of neutrophil number in BALF, statistical significance: p<0.05 vs vehicle control. As to the method: Male BALB/c mice (weighing 21-24 g, were randomly grouped, 5 animals per group) were pre-treated with compound (100, 30, 10, 3 and 1 mg/kg body weight) or vehicle (5% DMSO/95% methyl-cellulose 0.5% w/v, positive control) by oral gavage in a volume of 10 mL/kg. 2 hours after compound administration, 10 mice were placed into a plexiglass box (Braintree Scientific, size 10″×4″×4″) with an input port for aerosol and another port for exhaust. Cigarette smoke was introduced through the aerosol port via a peristaltic pump (Masterflex L/S, Digital Economy Drive) set at 40 ml/min. Breathing air was also introduced through the same port via an elbow in the tubing at a rate of 0.4 L/min. With these settings, smoke concentration delivered to the box was approximately 10%. 3 cigarettes (research type 4A1, University of Kentucky Tobacco Institute) were given back-to-back with a 1 min period between each one, when the mice breathed fresh air for one minute. 2 to 3 hours after the first group of cigarettes, 2 additional cigarettes were given, again allowing 1 min between each cigarette. After the last cigarette, the mice were returned to their normal housing. This procedure was carried out for 2 days.
On the 3rd day, mice were euthanized with 0.1 ml Fatal Plus i.p., then bronchoalveolar lavaged with 5×0.7 ml Dulbecco's phosphate-buffered saline (dPBS, in-house Media Prep lab) through a tracheal tube. BALF was spun at 3000 rpm for 10 min, the supernatant discarded, and the cells resuspended with 1 ml dPBS. Slides were made on a cytospin (100 μl fluid, spun at 300 rpm for 5 min), then stained with Diff Quick for differential counts (minimum of 200 cells counted). Total cell counts were performed with a hemocytometer after a dilution with Tuerks solution.
Results are expressed as percentage decrease in number of neutrophils in BALF of treated animals compared to positive control (vehicle treated and smoke challenged animals).

In assay [1] the test system is IL-6 production in LPS-stimulated murine spleenocytes. Put plainly: Inhibition of IL-6 production in LPS-stimulated murine spleenocytes in vitro. The assay is classed as cell-based. The following applies: Mus musculus, 50 μM concentration of the compound, read-out: inhibition of interleukin-6 (IL-6) production. As to the method:
Test and reference substances used in an in vitro assays were dissolved in dimethyl sulfoxide (DMSO) (Sigma Chemical Co., USA) at a concentration of 50 mM and were further diluted to test concentrations in appropriate cell culture medium.
After cervical dislocation, mouse spleens were removed using sterile dissection tools. Spleens were transferred to a pre-wetted cell strainer in a 50 mL sterile conical tube and cell suspension was made by gentle puddle. Cells were centrifuged (20 min, 300×g) and resuspended in 2 mL of sterile phosphate buffered saline (PBS) (Sigma Chemical Co., USA). Red blood cells were lysed by addition of 3 mL of sterile water and occasionally gentle shaking for 1 minute. Afterwards, the tube was filled to 40 mL with DMEM medium and centrifuged (20 min, 300×g). Cells were resuspended in DMEM supplemented with 1% FBS and seeded in a 24-well plate, 1×10^6 cells per mL medium.
Final concentrations of 50 μM, 25 μM, 12.5 μM, 6.3 μM and 3.1 μM of test compounds were prepared by diluting a 50 mM DMSO stock in Dulbecco's modified Eagle medium (DMEM) (Gibco, USA) supplemented with 1% heat inactivated fetal bovine serum (FBS) (BioWest, Ringmer, United Kingdom).
Cells were pre-incubated with the test compounds for 3 h at 37° C., in an atmosphere of 5% CO2 and 90% humidity. Afterwards, cells were stimulated with 1 μg/mL lipopolysaccharide (LPS, E. coli 0111:B4, Sigma Chemical Co., USA) and incubated overnight. Concentration of IL-6 was determined in cell supernatants by sandwich ELISA using capture and detection antibodies (R&D Systems, USA) according to the manufacturer's recommendations.
Inhibition (as percentage) was calculated using the following formula:
% inhibition=[1−(concentration of IL-6 in sample−concentration of IL-6 in negative control)/(concentration of IL-6 in positive control−concentration of IL-6 in negative control)]×100.
The positive control refers to LPS-stimulated samples that were not preincubated with the compounds.
The negative control refers to unstimulated and untreated samples.

The next assay concerns male BALB/cJ mice. Put plainly: Lung neutrophilia induced by bacterial lipopolysaccharide in male BALB/cJ mice - Method B. The format is in vivo. The following applies: Mus musculus, ip, 24 h, single dose of 100 mg/kg i.p., vs LPS challenged untreated animals. On the procedure:
For intraperitoneal administration (i.p.) compounds were dissolved in a final concentration of 10 mg/mL. The required amount of compound was first dissolved in dimethylsulfoxide (DMSO, Sigma) and then diluted with 0.5% (w/v) methyl-cellulose so that the final DMSO concentration was 5% (v/v). The obtained solution was applied in a dose volume of 0.1 mL per 10 g of animal. Therefore, the compound dose was 100 mg/kg.
Male BALB/cJ mice (Charles River, Germany), with an average weight of ˜25 g were randomly grouped (n=8 in testing group, 10 in positive control and 6-8 in negative control). Mice received intraperitoneally (i.p.) a single dose of 100 mg/kg of test compound. Two hours after administration, 0.4 μg of LPS (from Escherichia coli serotype 0111:B4, Sigma), dissolved in sterile saline (0.9% NaCl) in a volume of 50 μL, was intranasally administered to all experimental groups except the negative control group, which received the same volume of vehicle (saline). Animals were sacrificed approximately 24 hours after application of LPS in order to obtain bronchoalveolar lavage fluid (BALF), which was used to determine absolute number of cells and the percentage of neutrophils. […] In some experiments neutrophil levels in BALF were assessed by measurement of concentration of a neutrophil-specific enzyme myeloperoxidase (MPO). Results are then expressed as percentage of decrease in myeloperoxidase (MPO) concentration measured in BALF lysates of treated animals compared to positive control (Mouse MPO ELISA Kit, Hycult biotechnology, Nederlands). For this purpose, BALF was sonicated after addition of 1.5% Triton-X-100 (Pharmacia Biotech) in Milli-Q water and frozen at −80° C. until analysed.

The mark [2] stands for this setting: Neutrophil, read-out: inhibition of number of neutrophils or decrease in myeloperoxidase concentration in BALF.
The mark [3] stands for this setting: read-out: inhibition of total cell number in BALF.

On to `CC[C@H]1OC(=O)[C@H](C)[C@@H](O[C@H]2C[C@@](C)(OC)[C@@H](O)[C@H](C)O2)[C@H](C)[C@@H](O[C@@H]2O[C@H](C)C[C@H](N(C)C)[C@H]2OCCCNC(=O)COC)[C@](C)(O)C[C@@H](C)CN(C)[C@H](C)[C@@H](O)[C@]1(C)O` [Example 16, 2′-O-{3-[(Methoxyacetyl)amino]propyl}-9-deoxo-9a-methyl-9a-aza-9a-homoerythromycin A], for which the “reduction of neutrophil number in BALF, statistical significance” value (shortened to “reduction … statistical significance”) with Male BALB/c mice (dose of 30 mg/kg) was “statistically significantly reduced”. For the same molecule, the inhibition at 50 µM in assay [1] was greater than 40%. Further, the inhibition in vivo at 100 mg/kg in the assay on male BALB/cJ mice (setting [2]) and in the assay with male BALB/cJ mice (setting [3]) was greater than 50% in each case.
Take `CCC(=O)NCCCO[C@H]1[C@H](O[C@@H]2[C@@H](C)[C@H](O[C@H]3C[C@@](C)(OC)[C@@H](O)[C@H](C)O3)[C@@H](C)C(=O)O[C@H](CC)[C@@](C)(O)[C@H](O)[C@@H](C)N(C)C[C@H](C)C[C@@]2(C)O)O[C@H](C)C[C@@H]1N(C)C` [Example 2, 2′-O-[3-(Propanoylamino)propyl]-9-deoxo-9a-methyl-9a-aza-9a-homoerythromycin A]: the “reduction … statistical significance” value in the assay on Male BALB/c mice (dose of 100 mg/kg) is “no statistical significance”. The “inhibition of neutrophil number in BALF” value in the assay on Male BALB/c mice (dose of 100 mg/kg, vs vehicle treated smoke challenged animals) is given as “less than 10%”. Moreover, the inhibition at 50 µM in assay [1] was greater than 40%.
Turning to `CC[C@H]1OC(=O)[C@H](C)[C@@H](O[C@H]2C[C@@](C)(OC)[C@@H](O)[C@H](C)O2)[C@H](C)[C@@H](O[C@@H]2O[C@H](C)C[C@H](N(C)C)[C@H]2OCCCNC(=O)CCCC(=O)OC)[C@](C)(O)C[C@@H](C)CN(C)[C@H](C)[C@@H](O)[C@]1(C)O` [Example 14, 2′-O-(3-{[5-(Methyloxy)-5-oxopentanoyl]amino}propyl)-9-deoxo-9a-methyl-9a-aza-9a-homoerythromycin A], in assay [1], the inhibition at 50 µM was greater than 40%. Also, the inhibition in vivo at 100 mg/kg with male BALB/cJ mice (setting [2]) and with male BALB/cJ mice (setting [3]) was greater than 30% in each case.
For `CC[C@H]1OC(=O)[C@H](C)[C@@H](O[C@H]2C[C@@](C)(OC)[C@@H](O)[C@H](C)O2)[C@H](C)[C@@H](O[C@@H]2O[C@H](C)C[C@H](N(C)C)[C@H]2OCCCNC(=O)c2ccoc2)[C@](C)(O)C[C@@H](C)CN(C)[C@H](C)[C@@H](O)[C@]1(C)O` [Example 17, 2′-O-{3-[(3-Furanylcarbonyl)amino]propyl}-9-deoxo-9a-methyl-9a-aza-9a-homoerythromycin A], the inhibition at 50 µM in assay [1] is greater than 40%. Besides, the inhibition in vivo at 100 mg/kg in the assay with male BALB/cJ mice (setting [2]) and in the assay with male BALB/cJ mice (setting [3]) was greater than 50% throughout.
Regarding `CCOCC(=O)NCCCO[C@H]1[C@H](O[C@@H]2[C@@H](C)[C@H](O[C@H]3C[C@@](C)(OC)[C@@H](O)[C@H](C)O3)[C@@H](C)C(=O)O[C@H](CC)[C@@](C)(O)[C@H](O)[C@@H](C)N(C)C[C@H](C)C[C@@]2(C)O)O[C@H](C)C[C@@H]1N(C)C` [Example 21, 2′-O-{3-[(Ethyloxyacetyl)amino]propyl}-9-deoxo-9a-methyl-9a-aza-9a-homoerythromycin A], the “reduction … statistical significance” value in the assay on Male BALB/c mice (dose of 30 mg/kg) was “statistically significantly reduced”. Further, the inhibition at 50 µM in assay [1] was greater than 40%. Also, the inhibition in vivo at 100 mg/kg in the assay with male BALB/cJ mice (setting [2]) and in the assay on male BALB/cJ mice (setting [3]) was greater than 50% in each case.
`CC[C@H]1OC(=O)[C@H](C)[C@@H](O[C@H]2C[C@@](C)(OC)[C@@H](O)[C@H](C)O2)[C@H](C)[C@@H](O[C@@H]2O[C@H](C)C[C@H](N(C)C)[C@H]2OCCCNC(=O)C2CCOCC2)[C@](C)(O)C[C@@H](C)CN(C)[C@H](C)[C@@H](O)[C@]1(C)O` [Example 25, 2′-1-{3-[(Tetrahydro-2H-pyran-4-ylcarbonyl)amino]propyl}-9-deoxo-9a-methyl-9a-aza-9a-homoerythromycin A]: the inhibition at 50 µM in assay [1] is greater than 40%. Further, the inhibition in vivo at 100 mg/kg in the assay with male BALB/cJ mice (setting [2]) and in the assay with male BALB/cJ mice (setting [3]) was greater than 50% in each case.

The term inhibition denotes the share of the control response that was lost under treatment.
